Drawing on PMC5472792, “Bub1 positions Mad1 close to KNL1 MELT repeats to promote checkpoint signalling” (Nature Communications, 2017), this text covers KD for one compound.

Square brackets hold non-standard residues; d marks the D form. Peptide text beside a SMILES is read from it. * marks the point of attachment. Biotin = O=C1N[C@H]2[C@H](CS[C@H]2CCCCC(=O)*)N1; pT = C[C@@H](OP(=O)(O)O)[C@H](N)C(=O)O; Nle = CCCC[C@H](N)C(=O)O

The target in the assay is T1, Mad1 597–718 Glu710Ala/Phe712Ala (Homo sapiens, UniProt Q9Y6D9, E710A/F712A).
T1 construct: His; Strep; made in house; host or cells: E. coli BL21(DE3) (stated for the wild-type construct)
T1 sequence (Q9Y6D9 597-718 E710A/F712A): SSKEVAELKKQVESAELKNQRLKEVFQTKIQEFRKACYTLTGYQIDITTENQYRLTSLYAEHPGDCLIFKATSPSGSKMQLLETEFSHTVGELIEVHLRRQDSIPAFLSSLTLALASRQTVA
The assay can be described thus: SPR, binding of CD1 peptide to Mad1 597–718 Glu710Ala/Phe712Ala. As to conditions: steady state, similar to Fig. 4. From the text: To investigate this, we first tested the role of these Mad1 residues in binding Bub1. We measured the ability of recombinant Mad1 (597–718) Glu710Ala/Phe712Ala to bind the CD1 peptide phosphorylated on Thr461. […] This argues that Mad1 has an important function in the checkpoint in addition to interacting with Mad2 and Bub1.
Figure 6 Residues in Mad1 are important for SAC function but not Bub1 binding. (a) SPR steady-state responses for pT461 Bub1 CD1 peptides to purified Mad1 597–718 Glu710Ala/Phe712Ala protein similar to Fig. 4. (b) Nocodazole arrested stable HeLa cell lines expressing Mad1-BirA or mutants were treated with biotin as indicated and biotinylated proteins were isolated. The samples were analysed for the presence of KNL1, Bub1 and BubR1 by western blot. Mad1-BirA (WT), Mad1(EFR/AAA)-BirA and Mad1 (RLK/AAA)-BirA. Representative of two independent experiments. […] Live cell imaging and quantification were performed as in Fig. 5a. […] The number of cells analysed per condition is indicated above. […]
Bub1 peptides were purchased from Biosyntan Gmbh (Germany). The purity obtained in the synthesis was 95–98% as determined by high-performance liquid chromatography (HPLC) and the identity of the peptides was confirmed by mass spectrometry. […] Sensorgrams were analysed after double referencing. […]
In general terms: Surface plasmon resonance follows binding to a sensor surface in real time, without labels.

As for `CCCC[C@H](NC(=O)[C@H](CC(N)=O)NC(=O)[C@H](CCCC)NC(=O)[C@@H](NC(=O)[C@H](Cc1ccccc1)NC(=O)CNC(=O)[C@H](CC(C)C)NC(=O)[C@H](C)NC(=O)[C@H](CCC(=O)O)NC(=O)[C@H](CCCCN)NC(=O)[C@@H](NC(=O)[C@H](Cc1c[nH]cn1)NC(=O)[C@@H](NC(=O)[C@@H](NC(=O)[C@@H]1CCCN1C(=O)[C@H](CO)NC(=O)[C@@H]1CCCN1C(=O)[C@H](CCC(N)=O)NC(=O)[C@@H](NC(=O)[C@H](CCCCN)NC(=O)[C@H](CO)NC(=O)[C@@H]1CCCN1C(=O)[C@@H](NC(=O)[C@H](C)NC(=O)[C@H](CCC(N)=O)NC(=O)[C@@H](NC(=O)CCCC[C@@H]1SC[C@@H]2NC(=O)N[C@@H]21)C(C)C)[C@@H](C)O)C(C)C)[C@@H](C)OP(=O)(O)O)C(C)C)[C@@H](C)O)[C@@H](C)CC)C(=O)N[C@@H](Cc1ccccc1)C(=O)N[C@@H](CCC(N)=O)C(=O)N[C@@H](C)C(=O)N1CCC[C@H]1C(=O)N[C@H](C(=O)N[C@@H](CC(C)C)C(=O)N[C@@H](Cc1c[nH]c2ccccc12)C(=O)O)[C@@H](C)O` [CD1 pT461] (Biotin-VQATPSKVQPSP[pT]VHTKEALGFI[Nle]N[Nle]FQAPTLW-OH; C-terminus assumed), the KD entry was “the same affinity towards phosphorylated CD1 as wild type Mad1”.
